Experimental data taken from US4864038A, “Antihypercholesterolemic compounds” (Merck & Co., Inc., priority 1988, dated 1989).

Test system: HMG-CoA reductase
Assay: HMG-CoA Reductase Inhibition Assay (in vitro, intrinsic inhibitory activity)
Format: biochemical
Conditions: IC50 of test compound compared with compactin determined simultaneously, compactin assigned a value of 100; tested as sodium salt of dihydroxy acid form; rat liver microsomal enzyme
Experimental: The intrinsic HMG-CoA reductase inhibition activity of the claimed compounds is measured in the in vitro protocol published in J. Med. Chem., 28, p. 347-358 (1985) and described below:
Male Holtzman Sprague-Dawley rats (225-250 g) were kept on reversed lighting and fed Purina rat chow containing 3% cholestryamine for 7 days preceding their sacrifice by CO2 asphyxiation. Livers were removed 6 hours into the dark cycle and used immediately to prepare microsomes. […]
Test compounds or compactin (after first being converted to the sodium salt of their dihydroxy acid form in situ by addition of 1N NaOH (1 equivalent) were added to the assay system in 10-μL volumes at multiconcentration levels. After a 40-minute incubation at 37° C. with shaking and exposure to air, the reaction was stopped by the addition of 0.4 mL of 8N HCl. After an additional 30-minute incubation period at 37° C. to ensure the complete lactonization of mevalonic acid to mevalonolactone, 0.2 ml of the mixture was added to an 0.5×5.0 cm column containing 100-200 mesh Bio-Rex 5, chloride form (Bio-Rad), wetted with distilled water, as described by Alberts et al [J. Proc. Natl. Acad. Sci. U.S.A., 1980, 77, 3957]. […] Five milliliters of Aquasol-2 (New England Nuclear) was added to each vial, and radioactivity was measured in a Packard Tri Carb Prias scintillation counter. […]

Relative Potency | Compound
156 | C[C@H]1C=C2C=C[C@H](C)[C@H](CC[C@@H]3C[C@@H](O)CC(=O)O3)[C@H]2[C@@H](OC(=O)C(C)(C)Sc2ccccc2)C1 [Example 1, 6(R)-[2-[8(S)-[2-Methyl-2-(phenylthio)propionyloxy]-2(S),6(R)-dimethyl-1,2,6,7,8,8a(R)-hexahydronaphthyl-1(S)]ethyl]-4(R)-hydroxy-3,4,5,6-tetrahydro-2H-pyran-2-one]
38 | C[C@H]1C=C2C=C[C@H](C)[C@H](CC[C@@H]3C[C@@H](O)CC(=O)O3)[C@H]2[C@@H](OC(=O)C(C)(C)[S+]([O-])c2ccccc2)C1 (stereo partly drawn) [Example 2, 6(R)-[2-[8(S)-[2-Methyl-2-(phenylsulfinyl)propionyloxy]-2(S),6(R)-dimethyl-1,2,6,7,8,8a(R)-hexahydronaphthyl-1(S)]ethyl]-4(R)-hydroxy-3,4,5,,6-tetrahydro-2H-pyran-2-one]
